Data as given in patent US20140243292A1, “SUBSITUTED 2-(CHROMAN-6-YLOXYL)-THIAZOLES AND THEIR USE AS PHARMACEUTICALS” (Sanofi, priority 2011, published 2014).

Assays:
human NCX1 = biological target: T1, human NCX1 (Homo sapiens, UniProt P32418); assay: NCX1 inhibition, reverse mode (Ca2+ influx into cells), FLIPR Fluo-4 assay; assay type: cell-based; conditions: inhibition of NCX1 in reverse mode (Ca2+ influx into cells); read-out: NCX1rv IC50
T1 construct: expressed in transfected cells
Procedure, shortened: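 CHO cells stably expressing human NCX1 were loaded with 2 µM Fluo-4 AM for 80 min at room temperature, then preincubated with compound for 45 min at 16 °C in pH 7.4 HEPES buffer (3.5 mM CaCl2, 2.5 mM probenecid). Reverse-mode Ca2+ influx was triggered by 20 µM final gramicidin and read at 520 nm on FLIPR. IC50 came from % inhibition of max−min fluorescence.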

Sprague-Dawley rats = assay: In vivo method for determining the effect on heart contractility (left ventricular dp/dtmax); conditions: Rattus norvegicus, iv, anesthetized rats, vs solvent control, read-out: Contractility increase (%); for change in vivo at 0.1 mg/kg: i.v. bolus injection 0.1 mg/kg; for change in vivo at 0.3 mg/kg: i.v. bolus injection 0.3 mg/kg; for change in vivo at 1 mg/kg: i.v. bolus injection 1.0 mg/kg
Protocol: Adult male Sprague-Dawley rats (Harlan Winkelmann, Borchen, Germany) weighing 340 to 370 g were anesthetized with pentobarbital (100 mg/kg i.p.) and ventilated with a mixture of oxygen (40%) and room air (60%) at a tidal volume of 1 ml/100 g at 60 breaths/min. Body temperature was maintained at 36.5±0.3° C. with a heating lamp and was monitored with a rectal thermo sensor. Systemic blood pressure was measured in the left carotid artery using a pressure transducer (Combitrans; B. Braun Melsungen AG, Melsungen, Germany) connected to a DC-bridge-amplifier (PLUGSYS/ADC Type 663; Harvard Apparatus GmbH, March-Hugstetten, Germany). The electrocardiogram was measured as lead II via subcutaneously placed electrodes connected to a Heart-Rate-Module ([…] Type 669; Harvard Apparatus GmbH, March-Hugstetten, Germany). A micro-tip catheter (2 French, SPR-320; Millar Instruments, Houston, Tex., USA) was placed via the right carotid artery into the left ventricle, and the left ventricular pressure (LVP) and the enddiastolic pressure (EDP) were continuously measured. Registration of the hemodynamic data was performed via an analog digital converter by a personal computer using Notocord software (HEM version 3.5). Left ventricular contractility (dp/dtmax) and relaxation (dp/dtmin) were calculated from the LVP signal. For intravenous administration of the test compounds, the left jugular vein was prepared and a PP-50 catheter was inserted. Test compounds were administered either by intravenous bolus injection or by intravenous infusion by means of an infusion pump (Unita; B. Braun Melsungen AG, Melsungen, Germany). […] In a typical experiment, several dosages of the test compound were administered subsequently at increasing doses. Statistical significance of the data obtained with drug vs. control experiments, in which solvent was administered, was evaluated with the 2-sided ANOVA test (program Everstat). Increases in left ventricular contractility (percent increase) by example compounds are given in Table 3 in comparison to control experiments in which solvent was administered.

IC50 (human NCX1) | SMILES | change in vivo at 0.1 mg/kg (Sprague-Dawley rats) | change in vivo at 0.3 mg/kg (Sprague-Dawley rats) | change in vivo at 1 mg/kg (Sprague-Dawley rats)
400 nM | Cc1ccccc1C1CCc2cc(Oc3ncc(C(=O)NCCO)s3)ccc2O1 (centres unmarked) [Example 299, 2-(2-o-Tolyl-chroman-6-yloxy)-thiazole-5-carboxylic acid (2-hydroxy-ethyl)-amide] | 36% | 62% | 95%
600 nM | Cc1ccccc1C1CCc2cc(Oc3ncc(CNC(=O)c4ccno4)s3)ccc2O1 (centres unmarked) [Example 329, Isoxazole-5-carboxylic acid [2-(2-o-tolyl-chroman-6-yloxy)-thiazol-5-ylmethyl]-amide] | 24% | 53% | 101%
